Assay results as given in patent publication US7700623B2, “Arylamidine derivative, salt thereof, and antifungal containing these” (Toyama Chemical Co., Ltd., priority 2004, dated 2010).
Where a name gives a salt, the structure may show the parent alone.

What was measured:
[1] = tested on: Candida albicans TIMM1623; test: Antifungal action: susceptibility testing of fungi by microbroth dilution method; assay type: cell-based; settings: Candida albicans TIMM1623, RPMI/MOPS pH 7.0, 35° C., 48 hours, 50% growth inhibition
Experimental: Susceptibility testing of fungi was carried out using a microbroth dilution method. The medium used in the susceptibility test was RPMI1640 (RPMI/MOPS) adjusted to pH 7.0 employing 0.165 mol/L morpholinepropanesulfonic acid (MOPS) and 1.0 mol/L sodium hydroxide. A test compound was dissolved in sterile water, which was then subjected to two-fold serial dilution using 100 μL of RPMI/MOPS on a 96-well round bottom plate. Candida albicans TIMM1623 cultured overnight at 35° C. on Sabouraud agar medium was suspended in a sterilized physiological saline. The number of cells was counted under a biological microscope; a suspension of inoculum organism 2×10^3 cells/mL) was prepared using RPMI/MOPS, and 100 μL thereof was then dispensed into each well; and a microplate containing a predetermined concentration of the test compound, the medium, and fungal cells was finally prepared. The plate was cultured at 35° C. for 48 hours. After the end of cultivation, absorbance was determined at 630 nm using an automatic spectrophotometer. The lowest test compound concentration at which 50% growth inhibition was observed as compared to growth control where no test compound was added was defined as IC50.

[2] = Repeated-dose toxicity test in mice (1), hematological test; assay type: in vivo; settings: value when control group is set to 100; 6.25 mg/kg subcutaneously once a day for 7 days, male ICR mice
Experimental: (§1) Six-week old male ICR mice (body weight range: 30.6 to 34.8 g, the number of animals allocated to each group: 5) were used to examine the repeated-dose toxicity. A solution of each test compound was prepared by dissolution in distilled water. Each compound was subcutaneously administered at a dose of 6.25 mg/kg once a day for 7 days. A sterilized physiological saline was administered to a control group. At the end of the administration period, each mouse was anesthetized with ether. An injection syringe containing a heparin solution (Novo-Heparin Injection 1000, Aventis Pharma K.K.) as an anticoagulant was used for blood collection from abdominal portion of the vena cava. A hematological test was carried out for the following items.
(§2) (Hematological Test Items and Determination Methods)
(§3) Red blood cell count (RBC): Two-angle laser flow cytometry
(§4) Reticulocyte count: Flow cytometry after RNA staining

[3] = Vero cell proliferation inhibition test (XTT assay); assay type: cell-based; settings: African green monkey, Vero cells, concentration inhibiting cell proliferation by 50%
Experimental: The cytotoxicity of each compound was evaluated using Vero cells. Each test compound was dissolved in dimethylsulfoxide (DMSO), which was then subjected to serial dilution with 10% FBS-containing E'MEM and added to a 96-well plate. The cells were suspended in 10% FBS-containing E'MEM, inoculated in an amount of 3,000 cells/well (96-well plate), and cultured in a CO2 incubator at 37° C. for 3 days. The degree of growth of Vero cells was evaluated using a 2,3-bis-(2-methoxy-4-nitro-5-sulfophenyl)-5-[(phenylamino)carbonyl]-2H-tetrazolium=inner salt=monosodium salt (XTT) assay. Thus, an XTT solution containing 1 mg/mL XTT and 25 μmol/L phenazine=methosulfate (PMS) was added to each well, which was then incubated in a CO2 incubator for 2 hours, followed by determining the absorbance of the well at 450 nm (reference: 655 nm) using a micro plate reader. The absorbance ratio between the control (no added compound) and each of the wells was calculated, and the concentration (CC50; μg/mL) of compound inhibiting cell proliferation by 50% was computed.

[4] = Hygroscopicity test (1): storage at relative humidity of 75% for one week; assay type: physicochemical
Experimental: The compound of Example 4 and the comparative compound were stored under conditions of room temperature and a relative humidity of 75% or 60° C. and a relative humidity of 75% for one week.

[5] = Hygroscopicity test (3): storage at 60° C. and relative humidity of 100% for one week; assay type: physicochemical; settings: relative humidity of 100%
Experimental: The compound of Example 10 and the comparative compound were stored under conditions of 60° C. and a relative humidity of 100% for one week. As a result, the comparative compound deliquesced.

[6] = tested on: Trichomonas vaginalis CDC337; test: Antiprotozoan action; assay type: cell-based; settings: 48 h
Experimental: Trichomonas vaginalis CDC337 was cultured in a Diamond's trypticase-yeast-maltose medium (pH 6.8) containing 8% fetal bovine serum (FBS). The protozoan bodies which had been cultured 37° C. for 2 days were centrifuged (1,500 rpm, 10 minutes) and subjected to medium replacement with a fresh medium before adjustment to 2×10^4 bodies/mL, followed by dispensing them in an amount of 100 μL/well in a micro plate (96-well, flat bottom). The test compound was dissolved using 0.1 mol/L hydrochloric acid, which was then diluted to a predetermined concentration with the medium, followed by dispensing 100 μL/well thereof into a micro plate. The minimal test compound concentration at which the movement of the bodies was not observed after culture 37° C. under anaerobic conditions for 2 days was defined as MIC.

[7] = Repeated-dose toxicity test in mice (2), hematological test; assay type: in vivo; settings: value when control group is set to 100, male ICR mice
Experimental: as §1, with “weight range: 27.4 to 33.7” for “weight range: 30.6 to 34.8”, “27.4 to 33.7 g, the” for “30.6 to 34.8 g, the”, “dissolution in 0.1 mol/L hydrochloric acid. Each compound” for “dissolution in distilled water. Each compound”, “of 6.25 or 3.13 mg/kg once” for “of 6.25 mg/kg once”, “day for 14 days. A” for “day for 7 days. A”, “portion of vena cava.” for “portion of the vena cava.”
as §2, §3, §4

[8] = tested on: Candida albicans TIMM1623; test: Mouse Candida infection model test (oral administration); assay type: in vivo; settings: 1 mg/kg orally for 7 days from 2 hours after infection, cyclophosphamide-compromised mice, observed 21 days after infection
Experimental: Candida albicans TIMM1623 on a SDA plate, which had been cultured overnight at 35° C. was suspended in a sterilized physiological saline, which was then diluted to prepare a suspension of inoculum organism. To make mice in a transiently compromised state, cyclophosphamide was intraperitoneally administered at 200 mg/kg 4 days before infection and at 100 mg/kg the next day after infection. Into the tail vein of mice was inoculated 0.2 mL of the prepared solution of inoculum Candida albicans TIMM1623 to induce infection (about 3×10^4 CFU/mouse). The test compound was suspended in 0.5% methylcellulose and orally administered at 1 mg/kg of mouse body weight. The treatment was started from 2 hours after infection and carried out for 7 days.

[9] = 3.13 mg/kg subcutaneously once a day for 14 days

N=C(N)c1ccc(OCCCC2CCN(CCCOc3ccc(C(=N)N)cc3)CC2)cc1 [Example 4, 4-{3-[4-(3-{4-[amino(imino)methyl]phenoxy}propyl)-1-piperidinyl]propoxy}benzamidine hydrochloride]
IC50 [1]: ≤ 0.0039 µg/mL
Red blood cell count (RBC) [2]: 94
CC50 at 3 days [3]: 25 µg/mL
appearance after storage ([4]; 60° C.): powder without any change in the appearance
appearance after storage ([4]; room temperature): powder without any change in the appearance

N=C(N)c1ccc(OCCCC2CCN(CCCOc3ccc(C(=N)N)cc3)CC2)cc1 [Example 10, 4-{3-[4-(3-{4-[amino(imino)methyl]phenoxy}propyl)-1-piperidinyl]propoxy}benzamidine trihydrochloride pentahydrate]
deliquescence after storage [5]: did not deliquesce
MIC [6]: 16 µg/mL

N=C(N)c1ccc(OCCCC2CCN(CCCOc3ccc(C(=N)N)cc3)CC2)cc1 [Example 3, 4-{3-[4-(3-{4-[amino(imino)methyl]phenoxy}propyl)-1-piperidinyl]propoxy}benzamidine]
Red blood cell count (RBC) [7, 9]: 96.4
Reticulocyte count (Reticulocyte) [7, 9]: 93.5
Red blood cell count (RBC) ([7]; 6.25 mg/kg subcutaneously once a day for 14 days): 98.7

NC(=NO)c1ccc(OCCCC2CCN(CCCOc3ccc(C(N)=NO)cc3)CC2)cc1 [Example 47, 4-{3-[4-(3-{4-[amino(hydroxyimino)methyl]phenoxy}propyl)-1-piperidinyl]propoxy}benzamide=oxime hydrochloride]
mice survived [8]: 80%
